These results are taken from ChEMBL document CHEMBL5346973 (J Med Chem, 2023).

Usually pIC50 stands for the IC50 on a negative log10 scale, so that one unit is a factor of ten.

pIC50: −log10 of the molar value. Where a SMILES comes first, the peptide text is derived from it.

Assay [1] has as its target Neuronal acetylcholine receptor; alpha9/alpha10 (Homo sapiens, UniProt Q9GZZ6+Q9UGM1). Kind of assay: Antagonist activity at human alpha9alpha10 nACh receptor expressed in Xenopus oocyte assessed as inhibition of acetylcholine-induced response at -70 mV holding potential by voltage-clamp based electrophysiological assay. It is filed as cell-based.
In assay [2] the target is Nicotinic acetylcholine receptor alpha9/alpha10 (Rattus norvegicus, UniProt P43144+Q9JLB5). Kind of assay: Antagonist activity at rat alpha9alpha10 nACh receptor expressed in Xenopus oocyte assessed as inhibition of acetylcholine-induced response at -70 mV holding potential by voltage-clamp based electrophysiological assay. In kind it is cell-based.
Sequence of Nicotinic acetylcholine receptor alpha9/alpha10 (P43144 whole entry): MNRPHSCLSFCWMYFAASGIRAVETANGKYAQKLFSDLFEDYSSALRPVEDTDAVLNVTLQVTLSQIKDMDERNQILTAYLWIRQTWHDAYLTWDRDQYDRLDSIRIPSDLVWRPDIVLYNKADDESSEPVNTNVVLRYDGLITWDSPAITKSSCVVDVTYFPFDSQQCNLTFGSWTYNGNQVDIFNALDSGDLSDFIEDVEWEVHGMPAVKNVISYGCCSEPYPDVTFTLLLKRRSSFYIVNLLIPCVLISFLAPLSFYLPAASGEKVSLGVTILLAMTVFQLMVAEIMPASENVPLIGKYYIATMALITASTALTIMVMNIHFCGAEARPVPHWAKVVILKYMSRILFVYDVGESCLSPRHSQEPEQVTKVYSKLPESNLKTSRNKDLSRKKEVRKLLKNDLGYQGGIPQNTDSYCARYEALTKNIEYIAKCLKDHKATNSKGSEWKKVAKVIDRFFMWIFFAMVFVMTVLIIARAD
Sequence of Nicotinic acetylcholine receptor alpha9/alpha10 (Q9JLB5 whole entry): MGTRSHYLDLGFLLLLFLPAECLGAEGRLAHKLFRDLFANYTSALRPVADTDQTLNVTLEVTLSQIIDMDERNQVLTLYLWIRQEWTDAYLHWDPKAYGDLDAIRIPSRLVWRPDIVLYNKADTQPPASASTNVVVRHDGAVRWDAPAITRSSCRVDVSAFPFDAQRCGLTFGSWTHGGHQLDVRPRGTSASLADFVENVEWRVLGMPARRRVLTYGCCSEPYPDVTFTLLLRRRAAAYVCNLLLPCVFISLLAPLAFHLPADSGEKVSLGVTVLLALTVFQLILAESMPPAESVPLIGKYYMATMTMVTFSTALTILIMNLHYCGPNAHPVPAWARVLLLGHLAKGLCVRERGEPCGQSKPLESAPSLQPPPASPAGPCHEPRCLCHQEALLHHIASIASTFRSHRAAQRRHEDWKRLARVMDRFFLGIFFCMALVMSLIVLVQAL
A short description of assay [3]: Selectivity ratio of IC50 for human alpha9alpha10 nACh receptor to IC50 for rat alpha9alpha10 nACh receptor.
The target in assay [4] is Neuronal acetylcholine receptor subunit alpha-7 (Rattus norvegicus, UniProt Q05941). The experiment in a line: Antagonist activity at rat alpha7 nACh receptor expressed in Xenopus oocyte assessed as inhibition of acetylcholine-induced response at -70 mV holding potential by voltage-clamp based electrophysiological assay. In kind it is cell-based.
Sequence of Neuronal acetylcholine receptor subunit alpha-7 (Q05941 whole entry): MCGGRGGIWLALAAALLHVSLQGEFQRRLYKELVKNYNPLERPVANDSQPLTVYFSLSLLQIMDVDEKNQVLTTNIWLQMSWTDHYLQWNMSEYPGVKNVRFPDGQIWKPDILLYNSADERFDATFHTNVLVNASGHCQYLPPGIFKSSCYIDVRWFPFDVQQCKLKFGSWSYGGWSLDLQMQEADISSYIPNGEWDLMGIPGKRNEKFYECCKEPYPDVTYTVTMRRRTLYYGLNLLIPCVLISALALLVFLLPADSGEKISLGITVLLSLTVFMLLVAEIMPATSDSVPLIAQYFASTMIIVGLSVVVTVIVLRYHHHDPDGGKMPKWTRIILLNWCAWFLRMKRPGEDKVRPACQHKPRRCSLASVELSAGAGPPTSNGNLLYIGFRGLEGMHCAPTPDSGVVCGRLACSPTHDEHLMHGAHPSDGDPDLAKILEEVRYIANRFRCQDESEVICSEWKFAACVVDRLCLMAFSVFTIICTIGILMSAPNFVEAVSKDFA

Sequence of Neuronal acetylcholine receptor; alpha9/alpha10 (Q9UGM1 whole entry): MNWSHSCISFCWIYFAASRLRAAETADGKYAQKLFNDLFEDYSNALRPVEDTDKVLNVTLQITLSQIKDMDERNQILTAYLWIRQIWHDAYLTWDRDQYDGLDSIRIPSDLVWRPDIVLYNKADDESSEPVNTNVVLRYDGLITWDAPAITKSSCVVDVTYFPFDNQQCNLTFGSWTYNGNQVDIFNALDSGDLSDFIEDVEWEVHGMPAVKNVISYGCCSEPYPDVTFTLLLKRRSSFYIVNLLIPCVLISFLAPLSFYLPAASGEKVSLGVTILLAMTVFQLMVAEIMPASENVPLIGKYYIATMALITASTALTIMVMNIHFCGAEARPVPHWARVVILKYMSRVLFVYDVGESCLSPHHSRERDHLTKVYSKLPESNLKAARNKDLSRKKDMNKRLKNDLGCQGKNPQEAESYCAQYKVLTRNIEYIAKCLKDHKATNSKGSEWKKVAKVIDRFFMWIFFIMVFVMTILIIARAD
Sequence of Neuronal acetylcholine receptor; alpha9/alpha10 (Q9GZZ6 whole entry): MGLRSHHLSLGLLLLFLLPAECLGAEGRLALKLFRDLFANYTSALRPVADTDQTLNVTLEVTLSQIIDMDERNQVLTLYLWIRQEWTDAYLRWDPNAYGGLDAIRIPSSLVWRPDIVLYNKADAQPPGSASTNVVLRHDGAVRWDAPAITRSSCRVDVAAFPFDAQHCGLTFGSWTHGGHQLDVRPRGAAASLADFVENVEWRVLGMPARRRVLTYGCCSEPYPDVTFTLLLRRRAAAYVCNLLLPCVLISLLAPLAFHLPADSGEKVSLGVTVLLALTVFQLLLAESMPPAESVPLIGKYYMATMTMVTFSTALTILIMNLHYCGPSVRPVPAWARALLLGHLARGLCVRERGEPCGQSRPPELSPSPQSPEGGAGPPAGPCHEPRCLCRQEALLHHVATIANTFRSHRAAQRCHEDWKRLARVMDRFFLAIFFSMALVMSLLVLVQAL

Take `N=C(N)NCCC[C@H](NC(=O)[C@H](CS)NC(=O)[C@H](CCCNC(=N)N)NC(=O)[C@H](Cc1ccc(O)cc1)NC(=O)[C@H](CCCNC(=N)N)NC(=O)[C@H](CS)NC(=O)[C@H](CCCNC(=N)N)NC(=O)[C@@H]1CCCN1C(=O)[C@H](CC(=O)O)NC(=O)[C@H](CO)NC(=O)[C@H](CS)NC(=O)[C@H](CS)NC(=O)CN)C(=O)O`: the pIC50 is 6.31 in assay [1] and 8.82 in assay [2]. The Ratio IC50 in assay [3] was found to be 329.

Consider `C[C@@H](O)[C@H](NC(=O)[C@H](CS)NC(=O)[C@H](CS)NC(=O)CN)C(=O)N[C@@H](CC(=O)O)C(=O)N1CCC[C@H]1C(=O)N[C@@H](CCCNC(=N)N)C(=O)N[C@@H](CS)C(=O)N[C@@H](CCCNC(=N)N)C(=O)N[C@@H](Cc1ccc(O)c(I)c1)C(=O)N[C@@H](CCC(N)=O)C(=O)N[C@@H](CS)C(=O)N[C@@H](Cc1ccc(O)cc1)C(=O)O`, for which the negative logarithm of the IC50 (pIC50) is 8.82 in assay [1] and 9.05 in assay [2]. The Ratio IC50 in assay [3] is 1.7.

As to `CC(C)C[C@H](NC(=O)[C@H](CCC(=O)O)NC(=O)[C@@H]1CCCN1C(=O)[C@H](Cc1cnc[nH]1)NC(=O)[C@H](CC(N)=O)NC(=O)[C@@H](NC(=O)[C@H](CO)NC(=O)[C@H](CS)NC(=O)[C@H](C)NC(=O)[C@@H]1CCCN1C(=O)[C@H](Cc1cnc[nH]1)NC(=O)[C@H](CO)NC(=O)[C@H](CS)NC(=O)[C@H](CS)NC(=O)CN)C(C)C)C(=O)N[C@@H](CS)C(N)=O` (H-GCCSHPACSVNHPELC-NH2), the negative logarithm of the IC50 (pIC50) in assay [1] is 7.65; in assay [2] it was 8.16. Further, the Ratio IC50 in assay [3] is 3.2.

For `CC[C@H](C)[C@@H]1NC(=O)[C@H](CCCNC(=N)N)NC(=O)[C@H](CCCNC(=N)N)NC(=O)[C@@H](NC(=O)[C@H](Cc2ccc(O)cc2)NC(=O)[C@H](CCCNC(=N)N)NC(=O)[C@H](CCCNC(=N)N)NC(=O)[C@H](CCCNC(=N)N)NC(=O)[C@H](CCCNC(=N)N)NC(=O)[C@H](CC(=O)O)NC(=O)[C@H](C)NC(=O)[C@@H]2CCCN2C(=O)[C@H](CO)NC(=O)[C@H](CCCNC(=N)N)NC(=O)[C@@H]2CSSC[C@H](NC(=O)[C@@H](N)[C@@H](C)O)C(=O)N[C@@H](CCCNC(=N)N)C(=O)N[C@@H](CO)C(=O)N[C@@H](CO)C(=O)NCC(=O)N[C@@H](CCCNC(=N)N)C(=O)N[C@@H](Cc3ccc(O)cc3)C(=O)N2)CSSC[C@@H](C(=O)N[C@H](C(=O)O)C(C)C)NC(=O)[C@H](C)NC(=O)[C@H](CC(=O)O)NC(=O)[C@H]([C@@H](C)O)NC1=O` (HELM PEPTIDE1{T.C.R.S.S.G.R.Y.C.R.S.P.A.D.R.R.R.R.Y.C.R.R.I.T.D.A.C.V}$PEPTIDE1,PEPTIDE1,2:R3-9:R3|PEPTIDE1,PEPTIDE1,20:R3-27:R3$$$V2.0), the pIC50 in assay [4] is 5.52; in assay [2], 7.96.

Consider `CC[C@H](C)[C@@H]1NC(=O)[C@H](CCCNC(=N)N)NC(=O)[C@H](CCCNC(=N)N)NC(=O)[C@@H]2CSSC[C@H](NC(=O)[C@H](Cc3ccc(O)cc3)NC(=O)[C@H](CCCNC(=N)N)NC(=O)CNC(=O)[C@H](C)NC(=O)[C@H](CO)NC(=O)[C@H](CCCNC(=N)N)NC(=O)[C@@H](NC(=O)[C@@H](N)[C@@H](C)O)CSSC[C@@H](C(=O)N[C@H](C(=O)O)C(C)C)NC(=O)[C@H](C)NC(=O)[C@H](CC(=O)O)NC(=O)[C@H]([C@@H](C)O)NC1=O)C(=O)N[C@@H](CCCNC(=N)N)C(=O)N[C@@H](CO)C(=O)N1CCC[C@H]1C(=O)N[C@@H](Cc1ccc(O)cc1)C(=O)N[C@@H](CC(=O)O)C(=O)N[C@@H](CCCNC(=N)N)C(=O)N[C@@H](CCCNC(=N)N)C(=O)N[C@@H](CCCNC(=N)N)C(=O)N[C@@H](CCCNC(=N)N)C(=O)N[C@@H](Cc1ccc(O)cc1)C(=O)N2` (HELM PEPTIDE1{T.C.R.S.A.G.R.Y.C.R.S.P.Y.D.R.R.R.R.Y.C.R.R.I.T.D.A.C.V}$PEPTIDE1,PEPTIDE1,2:R3-27:R3|PEPTIDE1,PEPTIDE1,9:R3-20:R3$$$V2.0), for which the pIC50 is 5.20 in assay [4] and 7.22 in assay [2].

As for `CC[C@H](C)[C@@H]1NC(=O)[C@H](CCCNC(=N)N)NC(=O)[C@H](CCCNC(=N)N)NC(=O)[C@@H]2CSSC[C@H](NC(=O)[C@H](Cc3ccc(O)cc3)NC(=O)[C@H](CCCNC(=N)N)NC(=O)CNC(=O)[C@H](CO)NC(=O)[C@H](CO)NC(=O)[C@H](CCCNC(=N)N)NC(=O)[C@@H](NC(=O)[C@@H](N)[C@@H](C)O)CSSC[C@@H](C(=O)N[C@H](C(=O)O)C(C)C)NC(=O)[C@H](C)NC(=O)[C@H](CC(=O)O)NC(=O)[C@H](C)NC1=O)C(=O)N[C@@H](CCCNC(=N)N)C(=O)N[C@@H](CO)C(=O)N1CCC[C@H]1C(=O)N[C@@H](Cc1ccc(O)cc1)C(=O)N[C@@H](CC(=O)O)C(=O)N[C@@H](CCCNC(=N)N)C(=O)N[C@@H](CCCNC(=N)N)C(=O)N[C@@H](CCCNC(=N)N)C(=O)N[C@@H](CCCNC(=N)N)C(=O)N[C@@H](Cc1ccc(O)cc1)C(=O)N2`, the negative logarithm of the IC50 (pIC50) was 5.15 in assay [4] and 7.44 in assay [2].

With `CC[C@H](C)[C@@H]1NC(=O)[C@H](CCCNC(=N)N)NC(=O)[C@H](CCCNC(=N)N)NC(=O)[C@@H]2CSSC[C@H](NC(=O)[C@H](Cc3ccc(O)cc3)NC(=O)[C@H](CCCNC(=N)N)NC(=O)CNC(=O)[C@H](CO)NC(=O)[C@H](CO)NC(=O)[C@H](CCCNC(=N)N)NC(=O)[C@@H](NC(=O)[C@@H](N)[C@@H](C)O)CSSC[C@@H](C(=O)N[C@H](C(=O)O)C(C)C)NC(=O)[C@H](C)NC(=O)[C@H](CC(=O)O)NC(=O)[C@H]([C@@H](C)O)NC1=O)C(=O)N[C@@H](CCCNC(=N)N)C(=O)N[C@@H](CO)C(=O)N1CCC[C@H]1C(=O)N[C@@H](Cc1ccc(O)cc1)C(=O)N[C@@H](C)C(=O)N[C@@H](CCCNC(=N)N)C(=O)N[C@@H](CCCNC(=N)N)C(=O)N[C@@H](CCCNC(=N)N)C(=O)N[C@@H](CCCNC(=N)N)C(=O)N[C@@H](Cc1ccc(O)cc1)C(=O)N2` (HELM PEPTIDE1{T.C.R.S.S.G.R.Y.C.R.S.P.Y.A.R.R.R.R.Y.C.R.R.I.T.D.A.C.V}$PEPTIDE1,PEPTIDE1,2:R3-27:R3|PEPTIDE1,PEPTIDE1,9:R3-20:R3$$$V2.0), the pIC50 in assay [4] was 5.12; in assay [2], 8.33.

`CC[C@H](C)[C@@H]1NC(=O)[C@H](CCCNC(=N)N)NC(=O)[C@H](CCCNC(=N)N)NC(=O)[C@@H](NC(=O)[C@H](C)NC(=O)[C@H](CCCNC(=N)N)NC(=O)[C@H](CCCNC(=N)N)NC(=O)[C@H](CCCNC(=N)N)NC(=O)[C@H](CCCNC(=N)N)NC(=O)[C@H](CC(=O)O)NC(=O)[C@H](Cc2ccc(O)cc2)NC(=O)[C@@H]2CCCN2C(=O)[C@H](CO)NC(=O)[C@H](CCCNC(=N)N)NC(=O)[C@@H]2CSSC[C@H](NC(=O)[C@@H](N)[C@@H](C)O)C(=O)N[C@@H](CCCNC(=N)N)C(=O)N[C@@H](CO)C(=O)N[C@@H](CO)C(=O)NCC(=O)N[C@@H](CCCNC(=N)N)C(=O)N[C@@H](Cc3ccc(O)cc3)C(=O)N2)CSSC[C@@H](C(=O)N[C@H](C(=O)O)C(C)C)NC(=O)[C@H](C)NC(=O)[C@H](CC(=O)O)NC(=O)[C@H]([C@@H](C)O)NC1=O`: the pIC50 is 5.34 in assay [4] and 7.80 in assay [2].

In the case of `CC[C@H](C)[C@@H]1NC(=O)[C@H](CCCNC(=N)N)NC(=O)[C@H](CCCNC(=N)N)NC(=O)[C@@H](NC(=O)[C@H](Cc2ccc(O)cc2)NC(=O)[C@H](CCCNC(=N)N)NC(=O)[C@H](CCCNC(=N)N)NC(=O)[C@H](CCCNC(=N)N)NC(=O)[C@H](CCCNC(=N)N)NC(=O)[C@H](CC(=O)O)NC(=O)[C@H](Cc2ccc(O)cc2)NC(=O)[C@@H]2CCCN2C(=O)[C@H](CO)NC(=O)[C@H](CCCNC(=N)N)NC(=O)[C@@H]2CSSC[C@H](NC(=O)[C@@H](N)[C@@H](C)O)C(=O)N[C@@H](CCCNC(=N)N)C(=O)N[C@@H](CO)C(=O)N[C@@H](CO)C(=O)NCC(=O)N[C@@H](CCCNC(=N)N)C(=O)N[C@@H](Cc3ccc(O)cc3)C(=O)N2)CSSC[C@@H](C(=O)N[C@@H](C)C(=O)O)NC(=O)[C@H](C)NC(=O)[C@H](CC(=O)O)NC(=O)[C@H]([C@@H](C)O)NC1=O`, the negative-log IC50 (pIC50) in assay [4] is 6.12; in assay [2], 7.82.

For `CC[C@H](C)[C@@H]1NC(=O)[C@H](CCCNC(=N)N)NC(=O)[C@H](CCCNC(=N)N)NC(=O)[C@@H]2CSSC[C@H](NC(=O)[C@H](Cc3ccc(O)cc3)NC(=O)[C@H](CCCNC(=N)N)NC(=O)CNC(=O)[C@H](CO)NC(=O)[C@H](CO)NC(=O)[C@H](CCCNC(=N)N)NC(=O)[C@@H](NC(=O)[C@@H](N)[C@@H](C)O)CSSC[C@@H](C(=O)N[C@H](C(=O)O)C(C)C)NC(=O)[C@H](C)NC(=O)[C@H](CC(=O)O)NC(=O)[C@H]([C@@H](C)O)NC1=O)C(=O)N[C@@H](CCCNC(=N)N)C(=O)N[C@@H](CO)C(=O)N1CCC[C@H]1C(=O)N[C@@H](Cc1ccc(O)cc1)C(=O)N[C@@H](CC(=O)O)C(=O)N[C@@H](CCCNC(=N)N)C(=O)N[C@@H](CCCNC(=N)N)C(=O)N[C@@H](CCCNC(=N)N)C(=O)N[C@@H](C)C(=O)N[C@@H](Cc1ccc(O)cc1)C(=O)N2`, the pIC50 is less than 5.00 in assay [4] and 7.57 in assay [2].

On to `CC[C@H](C)[C@@H]1NC(=O)[C@H](CCCNC(=N)N)NC(=O)[C@H](C)NC(=O)[C@@H]2CSSC[C@H](NC(=O)[C@H](Cc3ccc(O)cc3)NC(=O)[C@H](CCCNC(=N)N)NC(=O)CNC(=O)[C@H](CO)NC(=O)[C@H](CO)NC(=O)[C@H](CCCNC(=N)N)NC(=O)[C@@H](NC(=O)[C@@H](N)[C@@H](C)O)CSSC[C@@H](C(=O)N[C@H](C(=O)O)C(C)C)NC(=O)[C@H](C)NC(=O)[C@H](CC(=O)O)NC(=O)[C@H]([C@@H](C)O)NC1=O)C(=O)N[C@@H](CCCNC(=N)N)C(=O)N[C@@H](CO)C(=O)N1CCC[C@H]1C(=O)N[C@@H](Cc1ccc(O)cc1)C(=O)N[C@@H](CC(=O)O)C(=O)N[C@@H](CCCNC(=N)N)C(=O)N[C@@H](CCCNC(=N)N)C(=O)N[C@@H](CCCNC(=N)N)C(=O)N[C@@H](CCCNC(=N)N)C(=O)N[C@@H](Cc1ccc(O)cc1)C(=O)N2`, for which the pIC50 is less than 5.00 in assay [4] and 7.43 in assay [2].
